# Test results taken from patent US12649733B2, “3,6-diamino-pyridazin-3-yl derivatives, pharmaceutical compositions containing them and their uses as pro-apoptotic agents” (LES LABORATOIRES SERVIER, priority 2019, dated 2026).
# pIC50, pKi: −log10 of the molar value.
# What was measured:
# H146 cells = assay: H146 cell viability, MTT assay; assay type: cell-based; details: 48 h exposure
# Outline: (§1)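 Viability read by MTT reduction (OD 540 nm after overnight SDS/HCl lysis) after 48 h compound treatment of cells in RPMI 1640/10% FBS. Triplicates at nine concentrations, 3.16-fold apart; four-parameter curve fitting yields IC50.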
# MOLT-4 cells = assay: MOLT-4 cell viability, MTT assay; assay type: cell-based; details: 48 h exposure
# Outline: as §1
# Bcl-xL protein = molecular target: T1, Bcl-xL protein (Homo sapiens, UniProt Q07817, N197C); assay: Fluorescence quenching assay (PUMA peptide displacement); assay type: binding; details: 1 nM protein, 400 nM peptide, 2 hours at 23° C.; KI determined from IC50
# T1 construct: (2-197)[N197C]; His-His (two His8 stretches joined by a Gly/Ala/Ser/Thr linker)
# Source text: Fluorescence quenching assay measures the change in fluorescence intensity of C-terminally Cy5-labeled BCL-xL protein, His-His-(EK)-hs ? (2-197)[N197C] (UniProtKB® primary accession number Q07817-1) having an amino acid sequence (SEQ ID:03): [[…] […] […] […] […]] which is linked in C-terminal region to the amino acid X which corresponds to a cysteine labeled on the sulfur with Sulfo-Cyanine5 from Lumiprobe GmbH catalogue number 13380, upon binding of a C-terminally labeled peptide derived from PUMA (UniProtKB® primary accession number Q9BXH1) having an aminoacid sequence (SEQ ID:04): [[…]] which is linked in C-terminal region to the amino acid X′ where X′ is cysteine labeled on the sulfur with TQ5WS from AAT Bioquest catalogue number 2079.
# The addition of a compound which binds competitively to the same site as the peptide will result in an increase in the fluorescence intensity of the protein due to displacement of the fluorescence quencher.
# An 11-point serial dilution of each compound was prepared in DMSO the final buffer conditions were 10 mM 4-(2-hydroxyethyl)-1-piperazineethanesulfonic acid [HEPES], 150 mM NaCl, 0.05% Tween 20, pH 7.4 and 5% DMSO. The final protein concentration in the assay was 1 nM with the peptide present at 400 nM. The experiments were incubated for 2 hours at 23° C. before fluorescence intensity was measured on a Biotek SynergyNeo plate reader (Excitation 620 nm, emission 680 nm). […] The KI values were determined from the IC50 values according to Cer et al, Nucleic Acids Res, 2009, Jul. 1: 37(WebServer issue): W441-W445.
# T1 sequence (Q07817 2-197 N197C): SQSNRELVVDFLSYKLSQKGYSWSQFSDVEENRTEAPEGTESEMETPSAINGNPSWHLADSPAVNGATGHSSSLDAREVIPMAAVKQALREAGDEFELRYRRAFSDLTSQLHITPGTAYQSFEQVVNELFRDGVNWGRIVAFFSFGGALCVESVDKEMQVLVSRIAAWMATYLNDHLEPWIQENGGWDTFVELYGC
SMILES,pIC50 (H146 cells),"pIC50 (MOLT-4 cells; Homo sapiens, MOLT-4, 48 h)",pKi (Bcl-xL protein),pIC50 (MOLT-4 cells),"pIC50 (H146 cells; Homo sapiens, NCI-H146, 48 h)"
"Cc1cc(N(C)c2ccc(-c3cnn(CC45CC6(C)CC(C)(C4)CC(OCCNCC[C@H](O)CO)(C6)C5)c3C)c(C(=O)O)n2)nnc1Nc1nc2ccccc2s1 [Example 247, 6-[{6-[(1,3-benzothiazol-2-yl)amino]-5-methylpyridazin-3-yl}(methyl)amino]-3-(1-{[3-(2-{[(3S)-3,4-dihydroxybutyl]amino}ethoxy)-5,7-dimethyladamantan-1-yl]methyl}-5-methyl-1H-pyrazol-4-yl)pyridine-2-carboxylic acid]",,8.55,11.92,,
"Cc1cc(N(C)c2ccc(-c3cnn(CC45CC6(C)CC(C)(C4)CC(OCCN(C)C)(C6)C5)c3C)c(C(=O)O)n2)nnc1Nc1nc2ccccc2s1 [Example 250, 6-[{6-[(1,3-benzothiazol-2-yl)amino]-5-methylpyridazin-3-yl}(methyl)amino]-3-[1-{{3-[2-(dimethylamino)ethoxy]-5,7-dimethyladamantan-1-yl}methyl)-5-methyl-1H-pyrazol-4-yl]pyridine-2-carboxylic acid]",,9.61,11.66,,
"Cc1cc(N(C)c2ccc(-c3cnn(CC45CC6(C)CC(C)(C4)CC(OCCNCCCO)(C6)C5)c3C)c(C(=O)O)n2)nnc1Nc1nc2ccccc2s1 [Example 268, 6-[[6-(1,3-benzothiazol-2-ylamino)-5-methyl-pyridazin-3-yl]-methyl-amino]-3-[1-[[3-[2-(3-hydroxypropylamino)ethoxy]-5,7-dimethyl-1-adamantyl]methyl]-5-methyl-pyrazol-4-yl]pyridine-2-carboxylic acid]",,9.59,11.64,,
"COCCCNCCOC12CC3(C)CC(C)(CC(Cn4ncc(-c5ccc(N(C)c6cc(C)c(Nc7nc8ccccc8s7)nn6)nc5C(=O)O)c4C)(C3)C1)C2 [Example 269, 6-[[6-(1,3-benzothiazol-2-ylamino)-5-methyl-pyridazin-3-yl]-methyl-amino]-3-[1-[[3-[2-(3-methoxypropylamino)ethoxy]-5,7-dimethyl-1-adamantyl]methyl]-5-methyl-pyrazol-4-yl]pyridine-2-carboxylic acid]",,9.74,11.57,,
"Cc1cc(N(C)c2ccc(-c3cnn(CC45CC6(C)CC(C)(C4)CC(OCCN4CCOCC4)(C6)C5)c3C)c(C(=O)O)n2)nnc1Nc1nc2ccccc2s1 [Example 270, 6-[[6-(1,3-benzothiazol-2-ylamino)-5-methyl-pyridazin-3-yl]-methyl-amino]-3-[1-[[3,5-dimethyl-7-(2-morpholinoethoxy)-1-adamantyl]methyl]-5-methyl-pyrazol-4-yl]pyridine-2-carboxylic acid]",,9.70,11.52,,
"Cc1cc(N(C)c2ccc(-c3cnn(CC45CC6(C)CC(C)(C4)CC(OCCNCCC(=O)O)(C6)C5)c3C)c(C(=O)O)n2)nnc1Nc1nc2ccccc2s1 [Example 271, 6-[[6-(1,3-benzothiazol-2-ylamino)-5-methyl-pyridazin-3-yl]-methyl-amino]-3-[1-[[3-[2-(2-carboxyethylamino)ethoxy]-5,7-dimethyl-1-adamantyl]methyl]-5-methyl-pyrazol-4-yl]pyridine-2-carboxylic acid]",,7.51,11.48,,
"Cc1cc(N(C)c2ccc(-c3cnn(CC45CC6(C)CC(C)(C4)CC(OCCNCc4cccc(O)c4)(C6)C5)c3C)c(C(=O)O)n2)nnc1Nc1nc2ccccc2s1 [Example 272, 6-[[6-(1,3-benzothiazol-2-ylamino)-5-methyl-pyridazin-3-yl]-methyl-amino]-3-[1-[[3-[2-[(3-hydroxyphenyl)methylamino]ethoxy]-5,7-dimethyl-1-adamantyl]methyl]-5-methyl-pyrazol-4-yl]pyridine-2-carboxylic acid]",,9.55,11.64,,

# Other lines, results leading:
pIC50 (H146 cells),"pIC50 (MOLT-4 cells; Homo sapiens, MOLT-4, 48 h)",pKi (Bcl-xL protein),pIC50 (MOLT-4 cells),"pIC50 (H146 cells; Homo sapiens, NCI-H146, 48 h)",SMILES
7.82,8.83,11.05,,,"Cc1cc(N(C)c2nc(C(=O)O)c(CCCOc3ccc(C#CC(C)N4CCOCC4)cc3F)s2)nnc1Nc1nc2ccccc2s1 (single isomer, unassigned) [Example 206, 2-[[6-(1,3-Benzothiazol-2-ylamino)-5-methyl-pyridazin-3-yl]-methyl-amino]-5-[3-[2-fluoro-4-((3R or 3S)-morpholinobut-1-ynyl)phenoxy]propyl]thiazole-4-carboxylic acid]"
8.13,,11.06,9.12,,"Cc1cc(N(C)c2nc(C(=O)O)c(CCCOc3ccc(C#CC(C)N4CCOCC4)cc3F)s2)nnc1Nc1nc2ccccc2s1 (single isomer, unassigned) [Example 208, 2-[[6-(1,3-Benzothiazol-2-ylamino)-5-methyl-pyridazin-3-yl]-methyl-amino]-5-[3-[2-fluoro-4-((3S or 3R)-morpholinobut-1-ynyl)phenoxy]propyl]thiazole-4-carboxylic acid]"
,6.69,11.96,,7.12,"Cc1cc(N(CCCCN2CCC(N)CC2)c2nc(C(=O)O)c(CCCOc3ccc(C#CCN(C)C)cc3F)s2)nnc1Nc1nc2ccccc2s1 [Example 175, 2-[4-(4-Amino-1-piperidyl)butyl-[6-(1,3-benzothiazol-2-ylamino)-5-methyl-pyridazin-3-yl]amino]-5-[3-[4-[3-(dimethylamino)prop-1-ynyl]-2-fluoro-phenoxy]propyl]thiazole-4-carboxylic acid]"
,7.12,11.96,,6.91,"CCN(CC)CCNCCCCN(c1cc(C)c(Nc2nc3ccccc3s2)nn1)c1nc(C(=O)O)c(CCCOc2ccc(C#CCN(C)C)cc2F)s1 [Example 176, 2-[[6-(1,3-Benzothiazol-2-ylamino)-5-methyl-pyridazin-3-yl]-[4-[2-(diethylamino)ethylamino]butyl]amino]-5-[3-[4-[3-(dimethylamino)prop-1-ynyl]-2-fluoro-phenoxy]propyl]thiazole-4-carboxylic acid]"
,6.65,11.52,,7.44,"Cc1cc(N(CCCCCN2CCC(N)CC2)c2nc(C(=O)O)c(CCCOc3ccc(C#CCN(C)C)cc3F)s2)nnc1Nc1nc2ccccc2s1 [Example 177, 2-[5-(4-Amino-1-piperidyl)pentyl-[6-(1,3-benzothiazol-2-ylamino)-5-methyl-pyridazin-3-yl]amino]-5-[3-[4-[3-(dimethylamino)prop-1-ynyl]-2-fluoro-phenoxy]propyl]thiazole-4-carboxylic acid]"
,6.89,11.13,,6.70,"CCN(CC)CCNCCCCCN(c1cc(C)c(Nc2nc3ccccc3s2)nn1)c1nc(C(=O)O)c(CCCOc2ccc(C#CCN(C)C)cc2F)s1 [Example 182, 2-[[6-(1,3-Benzothiazol-2-ylamino)-5-methyl-pyridazin-3-yl]-[5-[2-(diethylamino)ethylamino]pentyl]amino]-5-[3-[4-[3-(dimethylamino)prop-1-ynyl]-2-fluoro-phenoxy]propyl]thiazole-4-carboxylic acid]"
,,11.89,,7.36,"CNCC#Cc1cc(F)c(OCCCc2sc(N(C)c3cc(C)c(Nc4nc5ccccc5s4)nn3)nc2C(=O)O)cn1 [Example 197, 2-({6-[(1,3-Benzothiazol-2-yl)amino]-5-methylpyridazin-3-yl}(methyl)amino)-5-[3-({4-fluoro-6-[3-(methylamino)prop-1-yn-1-yl]pyridin-3-yl}oxy)propyl]-1,3-thiazole-4-carboxylic acid]"
,,9.66,,< 4.52,"Cc1cc(N(CCCC(O)C[N+](C)(C)CCCS(=O)(=O)[O-])c2nc(C(=O)O)c(CCCOc3ccc(/C=C/C=O)cc3F)s2)nnc1Nc1nc2ccccc2s1 (stereo not shown) [Example 228, 3-[[5-[[6-(1,3-Benzothiazol-2-ylamino)-5-methyl-pyridazin-3-yl]-[4-carboxy-5-[3-[2-fluoro-4-[(E)-3-oxoprop-1-enyl]phenoxy]propyl]thiazol-2-yl]amino]-2-hydroxy-pentyl]-dimethyl-ammonio]propane-1-sulfonate]"
,7.50,10.15,,,"C#CCCCN(c1cc(C)c(Nc2nc3ccccc3s2)nn1)c1nc(C(=O)O)c(CCCOc2ccc(C#CCNC)cc2F)s1 [Example 253, 2-[{6-[(1,3-benzothiazol-2-yl)amino]-5-methylpyridazin-3-yl}(pent-4-yn-1-yl)amino]-5-(3-{2-fluoro-4-[3-(methylamino)prop-1-yn-1-yl]phenoxy}propyl)-1,3-thiazole-4-carboxylic acid]"
,7.36,10.80,,,"CNCC#Cc1ccc(OCCCc2sc(N(CCCCCN=[N+]=[N-])c3cc(C)c(Nc4nc5ccccc5s4)nn3)nc2C(=O)O)c(F)c1 [Example 267, 2-[5-azidopentyl-[6-[(1,3-benzothiazol-2-yl)amino]-5-methyl-pyridazin-3-yl]amino]-5-[3-[2-fluoro-4-[3-(methylamino)prop-1-ynyl]phenoxy]propyl]-1,3-thiazole-4-carboxylic acid]"
